Here are results for two compounds from ChEMBL document CHEMBL5725522, “Inhibitors of bruton's tyrosine kinase” (2017).

In the test the target is Tyrosine-protein kinase BTK (Homo sapiens, UniProt Q06187). As to the kind of experiment: TR-FRET (Time Resolved FRET) Assay: This BTK competition assay measures compound potency (IC50) for the inactivated state of Bruton's Tyrosine Kinase using FRET (Förster/Fluorescence Resonance Energy Transfer) technology. The BTK-Eu complex was incubated on ice one hour prior to use at a starting concentration of 50 nM BTK-Bioease: 10 nM Eu-streptavidin (Perkin-Elmer Catalog#AD0062). The assay buffer consisted of 20 mM HEPES (pH 7.15), 0.1 mM DTT, 10 mM MgCl2, 0.5 mg/ml BSA with 3% Kinase Stabilizer (Fremont Biosolutions, Catalog #STB-K02). After 1 h, the reaction mixture from above was diluted 10 fold in assay buffer to make 5 nM BTK: 1 nM Eu-Streptavidin complex (donor fluorophore). 18 μl of a mixture of 0.11 nM BTK-Eu and 0.11 nM Kinase Tracer 178 (Invitrogen, Catalog #PV5593,) with BTK-Eu alone as no negative control, was then dispensed into 384-well flat bottom plates (Greiner, 784076). Compounds to be tested in assay were prepared as 10× concentrations and serial dilution in half-log increments was performed in DMSO so as to generate 10 point curves. […]. Background: In TR-FRET formats the signal depends on donor and acceptor labels being close together.
Tyrosine-protein kinase BTK, sequence (Q06187 whole entry): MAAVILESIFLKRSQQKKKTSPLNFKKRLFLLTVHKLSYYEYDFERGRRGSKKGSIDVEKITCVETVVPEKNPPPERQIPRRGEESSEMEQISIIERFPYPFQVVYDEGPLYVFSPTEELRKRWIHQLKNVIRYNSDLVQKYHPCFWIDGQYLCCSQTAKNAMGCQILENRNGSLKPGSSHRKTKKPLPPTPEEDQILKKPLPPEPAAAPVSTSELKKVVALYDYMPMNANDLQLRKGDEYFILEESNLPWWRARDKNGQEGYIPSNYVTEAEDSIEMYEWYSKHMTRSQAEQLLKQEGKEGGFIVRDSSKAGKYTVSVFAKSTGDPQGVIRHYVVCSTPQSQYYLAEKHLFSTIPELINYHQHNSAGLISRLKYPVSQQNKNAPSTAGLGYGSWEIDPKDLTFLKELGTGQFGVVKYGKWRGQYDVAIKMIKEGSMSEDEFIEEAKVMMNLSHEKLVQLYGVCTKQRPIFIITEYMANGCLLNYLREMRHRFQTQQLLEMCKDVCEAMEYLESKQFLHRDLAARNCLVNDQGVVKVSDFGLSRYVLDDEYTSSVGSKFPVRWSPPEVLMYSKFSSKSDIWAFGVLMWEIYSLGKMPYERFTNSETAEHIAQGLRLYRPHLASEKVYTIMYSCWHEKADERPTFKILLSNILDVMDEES

Consider `O=C(c1cc2cc(C(=O)N3CCOCC3)ccc2[nH]1)c1cnn2c1[nH]c(=O)c1cc(Oc3cccc(F)c3F)ccc12`, for which the IC50 was above 100000 nM.
To `CN1CCC(NC(=O)c2ccc3[nH]c(C(=O)c4cnn(-c5ccc(Oc6ccccc6C(=O)N(C)C)cc5Cl)c4N)cc3c2)C1` (configuration not stated) belongs 2.9 nM.

In general, IC50 refers to the concentration needed to halve the response being measured.
